Molecular target: T1, GABAA receptors α1β2γ2 (Homo sapiens, UniProt P14867+P47870)
T1 construct: expressed in transfected cells; host or cells: LTK (Ltk) cells, stably transfected
Assay: Patch clamp electrophysiology (QPatch) of recombinant GABAA receptors in Ltk cells
Assay type: cell-based
Conditions: 10 μM test article, 2 μM GABA (EC20), Ltk cells stably transfected with α1β2γ2, relative percentage potentiation; read-out: GABA (α1β2γ2) Qpatch in Ltk, % efficacy at 10 μM
Protocol: Patch Clamp Electrophysiology of Recombinant α1β2γ2 and α4β3δ GABAA Receptors
Cellular electrophysiology is used to measure the pharmacological properties of our GABAA receptor modulators in heterologous cell systems. Each compound is tested for its ability to affect GABA mediated currents at a submaximal agonist dose (GABA EC20=2 μM). LTK cells are stably transfected with the α1β2γ2 subunits of the GABA receptor and CHO cells are transiently transfected with the α4β3δ subunits via the Lipofecatamine method. Cells were passaged at a confluence of about 50-80% and then seeded onto 35 mm sterile culture dishes containing 2 ml culture complete medium without antibiotics or antimycotics. Confluent clusters of cells are electrically coupled (Pritchett et al., Science, 1988, 242, 1306-1308). Because responses in distant cells are not adequately voltage clamped and because of uncertainties about the extent of coupling (Verdoorn et al., Neuron 1990, 4, 919-928), cells were cultivated at a density that enables the recording of single cells (without visible connections to other cells).
Whole cell currents were measured with HEKA EPC-10 amplifiers using PatchMaster software or by using the high throughput QPatch platform (Sophion). Bath solution for all experiments contained (in mM): NaCl 137 mM, KCl 4 mM, CaCl2 1.8 mM, MgCl2 1 mM, HEPES 10 mM, D-Glucose 10 mM, pH (NaOH) 7.4. […]

T1 sequence (P14867 28-456): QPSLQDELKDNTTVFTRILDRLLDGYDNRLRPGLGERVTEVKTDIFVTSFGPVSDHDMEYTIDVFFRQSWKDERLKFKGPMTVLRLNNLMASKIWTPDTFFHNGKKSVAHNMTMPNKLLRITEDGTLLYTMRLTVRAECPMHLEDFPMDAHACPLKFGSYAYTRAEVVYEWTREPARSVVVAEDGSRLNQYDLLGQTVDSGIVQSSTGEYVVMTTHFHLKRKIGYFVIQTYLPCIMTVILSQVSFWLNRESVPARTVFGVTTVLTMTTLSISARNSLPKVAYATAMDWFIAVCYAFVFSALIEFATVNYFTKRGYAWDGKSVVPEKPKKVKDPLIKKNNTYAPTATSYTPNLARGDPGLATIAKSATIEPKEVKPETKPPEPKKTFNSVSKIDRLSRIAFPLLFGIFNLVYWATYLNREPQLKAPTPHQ
T1 sequence (P47870 25-512 limits assumed): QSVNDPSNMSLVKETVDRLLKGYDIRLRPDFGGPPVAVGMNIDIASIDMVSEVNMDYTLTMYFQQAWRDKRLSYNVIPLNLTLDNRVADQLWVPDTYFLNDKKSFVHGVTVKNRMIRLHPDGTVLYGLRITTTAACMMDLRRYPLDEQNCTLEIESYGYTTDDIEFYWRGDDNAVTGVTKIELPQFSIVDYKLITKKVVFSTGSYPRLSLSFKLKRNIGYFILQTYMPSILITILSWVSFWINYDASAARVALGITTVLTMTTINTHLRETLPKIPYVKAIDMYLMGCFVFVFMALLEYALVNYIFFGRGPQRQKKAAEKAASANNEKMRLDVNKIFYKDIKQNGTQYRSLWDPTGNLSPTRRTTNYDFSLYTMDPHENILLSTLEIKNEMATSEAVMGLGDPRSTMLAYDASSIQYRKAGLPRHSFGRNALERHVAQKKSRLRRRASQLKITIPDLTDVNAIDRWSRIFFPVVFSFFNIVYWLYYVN
T1 sequence (P18507 40-475 partner): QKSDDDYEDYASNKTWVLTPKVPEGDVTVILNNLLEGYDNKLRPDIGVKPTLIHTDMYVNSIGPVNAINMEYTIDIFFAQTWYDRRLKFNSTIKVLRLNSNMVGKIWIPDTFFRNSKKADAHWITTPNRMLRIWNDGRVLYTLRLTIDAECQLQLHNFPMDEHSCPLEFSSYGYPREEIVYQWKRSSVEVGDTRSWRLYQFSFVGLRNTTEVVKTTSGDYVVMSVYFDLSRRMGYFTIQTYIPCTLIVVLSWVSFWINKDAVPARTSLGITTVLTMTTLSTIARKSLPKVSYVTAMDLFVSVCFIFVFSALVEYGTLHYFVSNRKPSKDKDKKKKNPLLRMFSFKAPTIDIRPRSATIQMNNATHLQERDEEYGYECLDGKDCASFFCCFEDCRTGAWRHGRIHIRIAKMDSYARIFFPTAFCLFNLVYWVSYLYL

SMILES | Emax at 10 µM
C[C@@]1(O)CC[C@H]2[C@H](CC[C@@H]3[C@@H]2CC[C@]2(C)[C@@H](C(=O)c4ccccc4)CC[C@@H]32)C1 [Compound 1] | > 500%
C[C@@]1(O)CC[C@H]2[C@H](CC[C@@H]3[C@@H]2CC[C@]2(C)[C@@H](C(=O)c4nc5ccccc5s4)CC[C@@H]32)C1 [Compound 8] | 100 to 500%

Molecular target: rat brain cortical membranes ([35S]-TBPS binding)
Assay: Steroid inhibition of [35S]-TBPS binding (radioligand displacement)
Conditions: 3 nM [35S]-TBPS, in the presence of 5 μM GABA
Protocol: Steroid Inhibition of TBPS Binding
TBPS binding assays using rat brain cortical membranes in the presence of 5 μM GABA has been described (Gee et al, J. Pharmacol. Exp. Ther. 1987, 241, 346-353; Hawkinson et al, Mol. Pharmacol. 1994, 46, 977-985; Lewin, A. H et al., Mol. Pharmacol. 1989, 35, 189-194).
Briefly, cortices are rapidly removed following decapitation of carbon dioxide-anesthetized Sprague-Dawley rats (200-250 g). The cortices are homogenized in 10 volumes of ice-cold 0.32 M sucrose using a glass/teflon homogenizer and centrifuged at 1500×g for 10 min at 4° C. The resultant supernatants are centrifuged at 10,000×g for 20 min at 4° C. to obtain the P2 pellets. The P2 pellets are resuspended in 200 mM NaCl/50 mM Na—K phosphate pH 7.4 buffer and centrifuged at 10,000×g for 10 min at 4° C. This washing procedure is repeated twice and the pellets are resuspended in 10 volumes of buffer. Aliquots (100 uL) of the membrane suspensions are incubated with 3 nM [^35S]-TBPS and 5 μL aliquots of test drug dissolved in dimethyl sulfoxide (DMSO) (final 0.5%) in the presence of 5 μM GABA. The incubation is brought to a final volume of 1.0 mL with buffer. […] Following a 90 min incubation at room temp, the assays are terminated by filtration through glass fiber filters (Schleicher and Schuell No. 32) using a cell harvester (Brandel) and rinsed three times with ice-cold buffer. Filter bound radioactivity is measured by liquid scintillation spectrometry. Non-linear curve fitting of the overall data for each drug averaged for each concentration is done using Prism (GraphPad). […] The concentration of test compound producing 50% inhibition (IC50) of specific binding and the maximal extent of inhibition (Imax) are determined for the individual experiments with the same model used for the overall data and then the means±SEMs of the individual experiments are calculated.
Various compounds are or can be screened to determine their potential as modulators of [^35S]-TBPS binding in vitro. These assays are or can be performed in accordance with the above discussed procedures.

SMILES | IC50
C[C@@]1(O)CC[C@H]2[C@H](CC[C@@H]3[C@@H]2CC[C@]2(C)[C@@H](C(=O)c4ccccc4)CC[C@@H]32)C1 [Compound 1] | < 0.02 µM
C[C@@]1(O)CC[C@H]2[C@H](CC[C@@H]3[C@@H]2CC[C@]2(C)[C@@H](C(=O)c4nc5ccccc5s4)CC[C@@H]32)C1 [Compound 8] | > 0.1 µM
Cn1ccc(C(=O)[C@H]2CC[C@H]3[C@@H]4CC[C@H]5C[C@](C)(O)CC[C@]5(C)[C@H]4CC[C@]23C)n1 [Compound 123] | > 0.1 µM
Cn1cc(C(=O)[C@H]2CC[C@H]3[C@@H]4CC[C@H]5C[C@](C)(O)CC[C@]5(C)[C@H]4CC[C@]23C)cn1 [Compound 124] | 0.05 to 0.1 µM
C[C@@]1(O)CC[C@@]2(C)[C@@H](CC[C@@H]3[C@@H]2CC[C@]2(C)[C@@H](C(=O)c4cccnc4)CC[C@@H]32)C1 [Compound 125] | 0.02 to 0.05 µM
C[C@@]1(O)CC[C@@]2(C)[C@@H](CC[C@@H]3[C@@H]2CC[C@]2(C)[C@@H](C(=O)c4ccccc4-c4ccccc4)CC[C@@H]32)C1 [Compound 127] | > 0.1 µM
COc1ccc2cc(C(=O)[C@H]3CC[C@H]4[C@@H]5CC[C@H]6C[C@](C)(O)CC[C@]6(C)[C@H]5CC[C@]34C)ccc2c1 [Compound 128] | > 0.1 µM
COc1cc(OC)cc(C(=O)[C@H]2CC[C@H]3[C@@H]4CC[C@@H]5C[C@](C)(O)CC[C@@H]5[C@H]4CC[C@]23C)c1 [Compound 130] | 0.02 to 0.05 µM
COc1ccc(C(=O)[C@H]2CC[C@H]3[C@@H]4CC[C@H]5C[C@](C)(O)CC[C@]5(C)[C@H]4CC[C@]23C)c(C)c1 [Compound 132] | > 0.1 µM
C[C@@]1(O)CC[C@@]2(C)[C@@H](CC[C@@H]3[C@@H]2CC[C@]2(C)[C@@H](C(=O)c4ccc5c(c4)OCO5)CC[C@@H]32)C1 [Compound 133] | > 0.1 µM
CCc1ccc(C(=O)[C@H]2CC[C@H]3[C@@H]4CC[C@H]5C[C@](C)(O)CC[C@]5(C)[C@H]4CC[C@]23C)cc1 [Compound 134] | > 0.1 µM
Cc1cc(C)cc(C(=O)[C@H]2CC[C@H]3[C@@H]4CC[C@H]5C[C@](C)(O)CC[C@]5(C)[C@H]4CC[C@]23C)c1 [Compound 135] | > 0.1 µM
C[C@@]1(O)CC[C@H]2[C@H](CC[C@@H]3[C@@H]2CC[C@]2(C)[C@@H](C(=O)c4cc(F)cc(F)c4)CC[C@@H]32)C1 [Compound 136, (3,5-difluorophenyl)((3R,5R,8R,9R,10S,13S,14S,17S)-3-hydroxy-3,13-dimethylhexadecahydro-1H-cyclopenta[a]phenanthren-17-yl)methanone] | 0.02 to 0.05 µM
Cc1cc(C(=O)[C@H]2CC[C@H]3[C@@H]4CC[C@@H]5C[C@](C)(O)CC[C@]5(C)[C@H]4CC[C@]23C)ccc1F [Compound 137] | 0.02 to 0.05 µM

— patent publication US11945836B2, “Compositions and methods for treating CNS disorders” (Sage Therapeutics, Inc., priority 2014, dated 2024)
